In US7825151B2, “Hexahydro-cyclooctyl pyrazole cannabinoid modulators” (priority 2005, dated 2010):
Where “and” joins values, the source holds several entries; their conditions need not be identical. Identical values can stand only once. Like-named read-outs stand apart in the source and are kept apart here.

Tests used:
CB2 receptor [1] = target: T1, CB2 receptor (Homo sapiens, UniProt P34972); test: Binding assay for CB2 ([3H]-CP-55,940 displacement, SK-N-MC membranes)
T1 construct: expressed in transfected cells; host or cells: SK-N-MC cells, stably transfected with pcDNA3 CB-2 (human)
T1 sequence (P34972 whole entry): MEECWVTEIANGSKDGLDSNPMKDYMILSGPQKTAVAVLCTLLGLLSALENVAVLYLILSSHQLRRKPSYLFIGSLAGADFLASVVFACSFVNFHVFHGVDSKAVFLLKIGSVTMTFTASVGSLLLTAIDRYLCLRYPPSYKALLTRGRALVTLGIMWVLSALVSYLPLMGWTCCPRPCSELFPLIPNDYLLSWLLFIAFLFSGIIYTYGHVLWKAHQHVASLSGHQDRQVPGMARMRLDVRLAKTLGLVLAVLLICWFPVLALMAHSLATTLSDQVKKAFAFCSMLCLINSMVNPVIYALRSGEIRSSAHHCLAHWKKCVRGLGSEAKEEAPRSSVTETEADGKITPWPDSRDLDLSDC
Method: (§1) The human CB1 and CB2 receptors were stably expressed in SK-N-MC cells transfected with pcDNA3 CB-1 (human) or pcDNA3 CB-2 (human). The cells were grown in T-180 cell culture flasks under standard cell culture conditions at 37° C. in a 5% CO2 atmosphere. The cells were harvested by trysinization and homogenized in a homogenization buffer (10 mM Tris, 0.2 mM MgCl2, 5 mM KCl, with protease inhibitors aprotinin, leupeptin, pepstatin A and bacitracin) and centrifuged (2000 g). The supernatant was then centrifuged in 2M sucrose (31,300 g) to produce a semi-purified membrane pellet. The pellet was resuspended in homogenization and stored at −80° C.
(§2) On the day of the assay, the pellet was thawed on ice and diluted in assay buffer (50 mM Tris-HCl, 5 mM MgCl2, 2.5 mM EDTA, 0.5 mg/mL fatty acid free bovine serum albumin, pH 7.5). The diluted membrane pellet was added with buffer, either a test compound or vehicle standard and the radioligand [H]^3+-CP-55,940 (0.2 nM) to the wells of a 96-well polypropylene plate. Non-specific binding was measured in wells containing WIN 55,212 (10 uM). The plate was covered and incubated for 90 minutes at 30° C. The contents were then aspirated onto a Packard Unifilter GF/C filter bottom plate prewet with 0.5% polyethyleneimine. The wells of the polypropylene plate were rinsed and aspirated seven times with a 0.9% saline-0.5% Tween 20 solution. The Unifilter plate was dried, scintillation cocktail was added to each well and the counts representing binding were quantitated in a TopCount scintillation counter.
(§3) For compounds tested, an IC50 binding value was obtained from percent inhibition studies in which various test concentrations were used. The binding value was calculated by linear regression.
(§4) For compounds without an IC50 binding value, the percent inhibition (%) was obtained at a test concentration of ^(1)10 μM, ^(2)1 μM, ^(3)0.2 μM, ^(4)0.003 μM, ^(5) represents an average value.

human CB1 receptor [2] = target: T2, human CB1 receptor (Homo sapiens, UniProt P21554); test: Binding assay for CB1 ([3H]-CP-55,940 displacement, SK-N-MC membranes); conditions: for IC50: Cannabinoid CB1 Receptor Binding IC50, radioligand CP-55,940 0.2 nM, SK-N-MC membranes; for inhibition at 0.2 µM: test concentration 0.2 μM (footnote 3)
T2 construct: expressed in transfected cells; host or cells: SK-N-MC cells, stably transfected with pcDNA3 CB-1 (human)
T2 sequence (P21554 whole entry): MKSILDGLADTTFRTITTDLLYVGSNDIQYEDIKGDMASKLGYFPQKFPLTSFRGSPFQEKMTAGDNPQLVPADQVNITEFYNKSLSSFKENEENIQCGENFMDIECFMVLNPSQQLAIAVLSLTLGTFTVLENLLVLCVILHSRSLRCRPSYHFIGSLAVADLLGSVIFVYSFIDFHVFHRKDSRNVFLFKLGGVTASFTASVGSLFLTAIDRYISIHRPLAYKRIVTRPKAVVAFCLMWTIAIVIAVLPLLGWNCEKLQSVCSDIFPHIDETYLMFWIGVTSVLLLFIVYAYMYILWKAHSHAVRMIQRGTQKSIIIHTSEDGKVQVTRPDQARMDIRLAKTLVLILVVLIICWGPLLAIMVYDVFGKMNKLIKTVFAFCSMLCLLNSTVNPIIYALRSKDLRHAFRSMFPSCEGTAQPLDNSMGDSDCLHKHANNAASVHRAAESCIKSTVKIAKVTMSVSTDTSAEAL
Method: as §1, §2, §3, §4

CB2 receptor [3] = target: T1, CB2 receptor; test: Functional cell-based CRE β-gal assay, CB2 (adenylate cyclase activity)
Text: (§5) The CB1 and CB2 receptors are G-protein coupled receptors (GPCR), which influence cell function via the Gi-protein. These receptors modulate the activity of intracellular adenylate cyclase, which in turn produces the intracellular signal messenger cyclic-AMP (cAMP).
(§6) At baseline, or during non-ligand bound conditions, these receptors are constitutively active and tonically suppress adenylate cyclase activity. The binding of an agonist causes further receptor activation and produces additional suppression of adenylate cyclase activity. The binding of an inverse agonist inhibits the constitutive activity of the receptors and results in an increase in adenylate cyclase activity.
(§7) By monitoring intracellular adenylate cyclase activity, the ability of compounds to act as agonists or inverse agonists can be determined.
(§8) Test compounds were evaluated in SK-N-MC cells which, using standard transfection procedures, were stably transfected with human cDNA for pcDNA3-CRE β-gal and pcDNA3 CB1 receptor (human) or pcDNA3 CB2 receptor (human). By expressing CRE β-gal, the cells produced β-galactosidase in response to CRE promoter activation by cAMP. Cells expressing CRE β-gal and either the human CB1 or CB2 receptor will produce less β-galactosidase when treated with a CB1/CB2 agonist and will produce more β-galactosidase when treated with a CB1/CB2 inverse agonist.
(§9) The cells were grown in 96-well plates under standard cell culture conditions at 37° C. in a 5% CO2 atmosphere. After 3 days, the media was removed and a test compound in media (wherein the media was supplemented with 2 mM L-glutamine, […] sodium pyruvate, 0.1% low fatty acid FBS (fetal bovine serum) and antibiotics) was added to the cell. The plates were incubated for 30 minutes at 37° C. and the plate cells were then treated with forskolin over a 4-6 hour period, then washed and lysed. The β-galactosidase activity was quantitated using commercially available kit reagents (Promega Corp. Madison, Wis.) and a Vmax Plate Reader (Molecular Devices, Inc).
For cells expressing CRE β-gal and the CB2 receptor, CB2 agonists reduced β-galactosidase activity in a dose-dependent manner and CB2 inverse agonists increase β-galactosidase activity in a dose-dependent manner.
(§10) The change in β-galactosidase activity was determined by setting a vehicle treated cell's activity value at 100% and expressing the β-galactosidase activity measured in a corresponding compound treated cell as a percent of the vehicle treated cell activity.
The EC50 value for functional activity for compounds tested was calculated by linear regression and was obtained from studies in which varying compound concentrations were used.
The value of 29% for Compound 5 represents change in functional activity and was obtained from a study in which one compound concentration was used.

human CB1 receptor [4] = target: T2, human CB1 receptor; test: Functional cell-based CRE β-gal assay, CB1 (adenylate cyclase activity)
Text: as §5, §6, §7, §8, §9, §10
The EC50 value for functional activity for compounds tested was calculated by linear regression and was obtained from studies in which varying compound concentrations were used. Data provided for certain compounds is represented by percent change (%) in functional activity at a single test concentration: ^(1)10 μM and ^(2)1 μM.

[5] = read-out: CB2 receptor binding percent inhibition
[6] = read-out: CB1 receptor binding percent inhibition
[7] = test concentration 0.2 μM (footnote 3), read-out: CB2 receptor binding percent inhibition

With `CC(NC(=O)c1nn(C2CCCCC2)c2c1CCCCCC2)C12CC3CC(CC(C3)C1)C2` (stereo not drawn) [Cpd 6, 1-cyclohexyl-4,5,6,7,8,9-hexahydro-1H-cyclooctapyrazole-3-carboxylic acid (1-adamantan-1-yl-ethyl)-amide] the IC50 (CB2 receptor [1]; Cannabinoid CB2 Receptor Binding IC50, radioligand CP-55,940 0.2 nM, SK-N-MC membranes) was 0.6 nM and 0.7 nM, the inhibition at 1 µM (CB2 receptor [1]; [5]) was 91% and the IC50 (human CB1 receptor [2]) was 300 nM. It also gave an inhibition at 1 µM (human CB1 receptor [2]; test concentration 1 μM (footnote 2), read-out: CB1 receptor binding percent inhibition) of 86% and an EC50 (CB2 receptor [3]) of 29 nM.
In the case of `COc1ccc([C@H](C)NS(=O)(=O)/C=C/c2n[nH]c3c2CCCCCC3Cc2cccc(Cl)c2)cc1` (stereo partly drawn) [Cpd 20, (2E)-[9-(3-chloro-benzyl)-4,5,6,7,8,9-hexahydro-1H-cyclooctapyrazol-3-yl]-ethenesulfonic acid [(1S)-1-(4-methoxy-phenyl)-ethyl]-amide], the EC50 (CB2 receptor [3]) is reported as ≥ 5000 nM and the EC50 (human CB1 receptor [4]) is reported as > 5000 nM.
With `CCOC(=O)C1(NC(=O)c2nn(C3CCCCC3)c3c2CCCCCC3)CC2CCC1C2` (stereo not drawn) [Cpd 4, 2-[(1-cyclohexyl-4,5,6,7,8,9-hexahydro-1H-cyclooctapyrazole-3-carbonyl)-amino]-bicyclo[2.2.1]heptane-2-carboxylic acid ethyl ester] the inhibition at 0.003 µM (CB2 receptor [1]; [5]) was 74%, the IC50 (human CB1 receptor [2]) was 60 nM and the “CB1 receptor percent change in functional activity” value (human CB1 receptor [4]; single test concentration 1 μM (footnote 2)) was “^(2)−71%”.
Work on `COC[C@H](NC(=O)c1n[nH]c2c1CCCCC[C@@H]2Cc1cccc(Cl)c1)c1ccccc1` (relative stereo) [Cpd 27, (9R*)-(3-chloro-benzyl)-4,5,6,7,8,9-hexahydro-1H-cyclooctapyrazole-3-carboxylic acid [(1R)-2-methoxy-1-phenyl-ethyl]-amide] yielded an EC50 (CB2 receptor [3]) of 26 nM and an EC50 (human CB1 receptor [4]) of 43 nM.
In the case of `O=C(N[C@H](CO)c1ccccc1)c1n[nH]c2c1CCCCC[C@@H]2Cc1cccc(Cl)c1` (relative stereo) [Cpd 24, (9R*)-(3-chloro-benzyl)-4,5,6,7,8,9-hexahydro-1H-cyclooctapyrazole-3-carboxylic acid [(1S)-2-hydroxy-1-phenyl-ethyl]-amide], the EC50 (CB2 receptor [3]) is reported as 124 nM and the EC50 (human CB1 receptor [4]) is reported as > 5000 nM.
`C[C@@H](NC(=O)c1nn(-c2ccc(Cl)cc2Cl)c2c1CCCCC/C2=C\c1ccc(F)cc1)C1CCCCC1` [Cpd 17, (9E)-1-(2,4-dichloro-phenyl)-9-(4-fluoro-benzylidene)-4,5,6,7,8,9-hexahydro-1H-cyclooctapyrazole-3-carboxylic acid [(1R)-1-cyclohexyl-ethyl]-amide] was tested, and the inhibition at 0.2 µM (CB2 receptor [1]; [5]) was 25%, the IC50 (human CB1 receptor [2]) was 10 nM and the inhibition at 0.2 µM (human CB1 receptor [2]; [6]) was 86%. The EC50 (human CB1 receptor [4]) was 40 nM.
`C[C@@H](NC(=O)c1nn(-c2ccc(Cl)cc2Cl)c2c1CCCCC/C2=C\c1ccc(F)cc1)c1ccccc1` [Cpd 12, (9E)-1-(2,4-dichloro-phenyl)-9-(4-fluoro-benzylidene)-4,5,6,7,8,9-hexahydro-1H-cyclooctapyrazole-3-carboxylic acid [(1R)-1-phenyl-ethyl]-amide] was tested, and the inhibition at 0.2 µM (CB2 receptor [1]; [5]) was 18%, the IC50 (human CB1 receptor [2]) was 8 nM and the inhibition at 0.2 µM (human CB1 receptor [2]; [6]) was 89%. It also gave an EC50 (human CB1 receptor [4]) of 10 nM.
`COC[C@H](NC(=O)c1n[nH]c2c1CCCCC[C@H]2Cc1cccc(Cl)c1)c1ccccc1` (relative stereo) [Cpd 26, (9S*)-(3-chloro-benzyl)-4,5,6,7,8,9-hexahydro-1H-cyclooctapyrazole-3-carboxylic acid [(1R)-2-methoxy-1-phenyl-ethyl]-amide] was tested, and the EC50 (CB2 receptor [3]) was 5 nM and the EC50 (human CB1 receptor [4]) was 70 nM.
`O=C(N[C@@H](CO)c1ccccc1)c1n[nH]c2c1CCCCCC2Cc1cccc(Cl)c1` (stereo in doubt) [Cpd 23, (9R*)-(3-chloro-benzyl)-4,5,6,7,8,9-hexahydro-1H-cyclooctapyrazole-3-carboxylic acid [(1R)-2-hydroxy-1-phenyl-ethyl]-amide] showed an EC50 (CB2 receptor [3]; SK-N-MC cells, CRE β-gal, forskolin, agonist, read-out: CB2 Receptor Functional Agonist Activity EC50) of 11 nM and an EC50 (human CB1 receptor [4]; SK-N-MC cells, CRE β-gal, forskolin, agonist, read-out: CB1 Receptor Functional Agonist Activity EC50) of 88 nM.
With `O=C(NNc1ccc(Cl)cc1Cl)c1nn(-c2ccc(Cl)cc2Cl)c2c1CCCCC/C2=C\c1ccc(F)cc1` [Cpd 11, (9E)-1-(2,4-dichloro-phenyl)-9-(4-fluoro-benzylidene)-4,5,6,7,8,9-hexahydro-1H-cyclooctapyrazole-3-carboxylic acid N'-(2,4-dichloro-phenyl)-hydrazide] the inhibition at 0.2 µM (CB2 receptor [1]; [7]) was 30% and the inhibition at 0.2 µM (human CB1 receptor [2]; [6]) was 56%.
With `O=C(N[C@H](CO)c1ccccc1)c1n[nH]c2c1CCCCC[C@H]2Cc1cccc(Cl)c1` (relative stereo) [Cpd 25, (9S*)-(3-chloro-benzyl)-4,5,6,7,8,9-hexahydro-1H-cyclooctapyrazole-3-carboxylic acid [(1S)-2-hydroxy-1-phenyl-ethyl]-amide] the EC50 (CB2 receptor [3]) was 14 nM and the EC50 (human CB1 receptor [4]) was > 5000 nM.
With `C[C@H](NS(=O)(=O)/C=C/c1n[nH]c2c1CCCCCC2Cc1cccc(Cl)c1)c1ccccc1` (stereo partly drawn) [Cpd 21, (2E)-[9-(3-chloro-benzyl)-4,5,6,7,8,9-hexahydro-1H-cyclooctapyrazol-3-yl]-ethenesulfonic acid [(1S)-1-phenyl-ethyl]-amide] the EC50 (CB2 receptor [3]) was 347 nM and the EC50 (human CB1 receptor [4]) was > 5000 nM.
`O=C(NN1CC2CCCC2C1)c1nn(-c2ccc(Cl)cc2Cl)c2c1CCCCC/C2=C\c1ccc(F)cc1` (stereo not drawn) [Cpd 18, (9E)-1-(2,4-dichloro-phenyl)-9-(4-fluoro-benzylidene)-4,5,6,7,8,9-hexahydro-1H-cyclooctapyrazole-3-carboxylic acid (hexahydro-cyclopenta[c]pyrrol-2-yl)-amide] gave an IC50 (human CB1 receptor [2]) of 50 nM and an EC50 (human CB1 receptor [4]) of 20 nM.
For `C[C@@H](NC(=O)c1nn(-c2ccc(Cl)cc2Cl)c2c1CCCCC/C2=C\c1ccc(F)cc1)c1ccccn1` [Cpd 13, (9E)-1-(2,4-dichloro-phenyl)-9-(4-fluoro-benzylidene)-4,5,6,7,8,9-hexahydro-1H-cyclooctapyrazole-3-carboxylic acid [(1R)-1-pyridin-2-yl-ethyl]-amide], the inhibition at 0.2 µM (CB2 receptor [1]; [5]) was 11%, the IC50 (human CB1 receptor [2]) was 8 nM and the inhibition at 0.2 µM (human CB1 receptor [2]; [6]) was 90%. The EC50 (human CB1 receptor [4]) was 2 nM.
With `O=C(c1nn(-c2ccc(Cl)cc2Cl)c2c1CCCCC/C2=C\c1ccc(F)cc1)N1CCCCC1` [Cpd 14, (9E)-[1-(2,4-dichloro-phenyl)-9-(4-fluoro-benzylidene)-4,5,6,7,8,9-hexahydro-1H-cyclooctapyrazol-3-yl]-piperidin-1-yl-methanone] the inhibition at 0.2 µM (CB2 receptor [1]; [7]) was 28% and the inhibition at 0.2 µM (human CB1 receptor [2]; [6]) was 50%.
Work on `O=C(NC(CO)c1ccccc1)c1n[nH]c2c1CCCCCC2Cc1cccc(Cl)c1` [Cpd 22, (9S*)-(3-chloro-benzyl)-4,5,6,7,8,9-hexahydro-1H-cyclooctapyrazole-3-carboxylic acid [(1R)-2-hydroxy-1-phenyl-ethyl]-amide] yielded an EC50 (CB2 receptor [3]) of 3 nM and an EC50 (human CB1 receptor [4]) of 114 nM.
